Source: paper PMC5668067, “Phase I dose-escalation study of the c-Met tyrosine kinase inhibitor SAR125844 in Asian patients with advanced solid tumors, including patients with MET-amplified gastric cancer” (Oncotarget, 2017)
Entries after “also recorded” stand apart in the source; their conditions may differ.

Tests used:
[1] = test system: Asian patients with solid tumors; test: phase I dose escalation: dose-limiting toxicities, MTD and recommended dose; assay type: in vivo
Method: This was an open-label, phase I, multicenter study consisting of a dose-escalation phase (to determine the MTD of SAR) and a dose-expansion phase (to evaluate the antitumor activity of SAR at the RD in patients with MET-amplified tumors, including gastric cancer).
The model was run based on DLTs occurring during the first cycle of treatment.
(§1) SAR was administered by weekly intravenous infusion on days 1, 8, 15, and 22 of each 28–day cycle. The starting dose was 260 mg/m^2, and dose increments of 30% were made, to a maximum of 570 mg/m^2. Treatment continued until disease progression, unacceptable toxicity, or consent withdrawal. Patients were screened within 21 days before the first administration and followed for 30 days after the last administration.
A DLT was defined as grade 4 neutropenia for ≥ 7 consecutive days, febrile neutropenia, grade 4 thrombocytopenia or grade 3 thrombocytopenia with bleeding requiring a transfusion, any grade ≥ 3 nonhematologic event not easily managed or corrected by medical intervention, or SAR-related toxicity resulting in two or more missed doses.
(§2) The safety population consisted of all patients exposed to SAR, regardless of the amount of treatment administered.

c-Met kinase = target: c-Met kinase; set-up: method as in PMID 25504634; conditions: cited from earlier work
[2] = test system: Asian patients with solid tumors; test: phase I safety: treatment-emergent adverse events (NCI CTCAE v4.03), safety population; assay type: in vivo
Method: as §1, §2

[3] = test system: patients with solid tumors; set-up: method as in ref 9 = [9]; 9 Angevin E Spitaleri G Hollebecque A De Pas T Soria JC Harnois M Mazuir F Assadourian S De Marinis F A first-in-human (FIH) phase I study of SAR125844, a novel selective MET kinase inhibitor, in pati; conditions: cited from earlier work
[4] = dose-escalation cohort, 260 mg/m^2 (N = 6)
[5] = dose-escalation cohort, 340 mg/m^2 (N = 4)
[6] = dose-escalation cohort, 440 mg/m^2 (N = 3)
[7] = dose-escalation cohort, 570 mg/m^2 (N = 6)
[8] = dose-expansion cohort, All (N = 19)
[9] = dose-expansion cohort, GC (N = 14)

O=C(NCCN1CCOCC1)Nc1nc2ccc(Sc3nnc4ccc(-c5ccc(F)cc5)nn34)cc2s1 [SAR125844]
recommended dose (RD) ([1]; Asian patients, weekly i.v. infusion): 570 mg/m^2 | maximum tolerated dose (MTD) ([1]; dose-escalation cohort, 260–570 mg/m^2 weekly i.v.): not reached | dose-limiting toxicities (DLTs) ([1]; dose-escalation phase, listed as SAR): No dose-limiting toxicities; also recorded: No DLTs | patients with a DLT ([1]; expansion cohort, 570 mg/m^2, of 19 patients, cycle 1, transaminase and creatinine increases): one | IC50 (c-Met kinase; read-out: half-maximal inhibitory concentration): 4.2 nM | Ki (c-Met kinase; read-out: inhibitory constant): 2.8 nM | patients who discontinued treatment because of a TEAE ([2]; TEAE considered unrelated to the study drug): One | TEAE Abdominal pains ([2]; Total (N = 38)): 8 (21.1) n (%) | TEAE Back pain ([2]; Total (N = 38)): 5 (13.2) n (%) | TEAE Cancer pain ([2]; Total (N = 38)): 4 (10.5) n (%) | TEAE Constipation ([2]; Total (N = 38)): 8 (21.1) n (%) | TEAE Cough ([2]; Total (N = 38)): 4 (10.5) n (%) | TEAE Decreased appetite ([2]; Total (N = 38)): 11 (28.9) n (%) | TEAE Diarrhea ([2]; Total (N = 38)): 5 (13.2) n (%) | TEAE Edema, peripheral ([2]; Total (N = 38)): 4 (10.5) n (%) | TEAE Fatigue/asthenia ([2]; Total (N = 38)): 8 (21.1) n (%) | TEAE Injection site reaction/phlebitis ([2]; Total (N = 38)): 7 (18.4) n (%) | TEAE Insomnia ([2]; Total (N = 38)): 4 (10.5) n (%) | TEAE Nausea ([2]; Total (N = 38)): 14 (36.8) n (%) | TEAE Pyrexia ([2]; Total (N = 38)): 7 (18.4) n (%) | TEAE Rash ([2]; Total (N = 38)): 4 (10.5) n (%) | TEAE Vomiting ([2]; Total (N = 38)): 13 (34.2) n (%) | deaths due to adverse events ([2]; all patients (N = 38)): no deaths | frequency of abdominal pains ([2]; all patients (N = 38)): 21.1% | frequency of constipation ([2]; all patients (N = 38)): 21.1% | frequency of decreased appetite ([2]; all patients (N = 38)): 28.9% | frequency of fatigue or asthenia ([2]; all patients (N = 38)): 21.1% | frequency of nausea ([2]; all patients (N = 38)): 36.8% | frequency of vomiting ([2]; all patients (N = 38)): 34.2% | patients with at least one dose modification ([2]; all patients (N = 38)): Nine | patients with drug-related Grade ≥ 3 AEs ([2]; all patients (N = 38)): 7.9% | patients with infusion interrupted because of a grade 2 infusion-related reaction ([2]; all patients (N = 38)): one | patients with study-drug related Grade ≥ 3 TEAEs ([2]; all patients (N = 38)): three | serious TEAEs considered study-drug related ([2]; all patients (N = 38)): none | patients with Grade ≥ 3 TEAEs ([2]; all patients (N = 38), 15 patients): 39.5% | patients with study-drug related TEAEs ([2]; all patients (N = 38), 22 patients): 57.9% | patients with TEAEs ([2]; all patients (N = 38), 36 patients): 94.7% | patients with serious TEAEs ([2]; all patients (N = 38), eight patients): 21.1% | TEAE Abdominal pains [2, 4]: 1 (16.7) n (%) | TEAE Back pain [2, 4]: 3 (50.0) n (%) | TEAE Cancer pain [2, 4]: 0 (0) n (%) | TEAE Constipation [2, 4]: 2 (33.3) n (%) | TEAE Cough [2, 4]: 2 (33.3) n (%) | TEAE Decreased appetite [2, 4]: 1 (16.7) n (%) | TEAE Diarrhea [2, 4]: 0 (0) n (%) | TEAE Edema, peripheral [2, 4]: 0 (0) n (%) | TEAE Fatigue/asthenia [2, 4]: 3 (50) n (%) | TEAE Injection site reaction/phlebitis [2, 4]: 1 (16.7) n (%) | TEAE Insomnia [2, 4]: 1 (16.7) n (%) | TEAE Nausea [2, 4]: 1 (16.7) n (%) | TEAE Pyrexia [2, 4]: 4 (66.7) n (%) | TEAE Rash [2, 4]: 2 (33.3) n (%) | TEAE Vomiting [2, 4]: 1 (16.7) n (%) | TEAE Abdominal pains [2, 5]: 0 (0) n (%) | TEAE Back pain [2, 5]: 0 (0) n (%) | TEAE Cancer pain [2, 5]: 0 (0) n (%) | TEAE Constipation [2, 5]: 0 (0) n (%) | TEAE Cough [2, 5]: 1 (25.0) n (%) | TEAE Decreased appetite [2, 5]: 1 (25.0) n (%) | TEAE Diarrhea [2, 5]: 0 (0) n (%) | TEAE Edema, peripheral [2, 5]: 0 (0) n (%) | TEAE Fatigue/asthenia [2, 5]: 0 (0) n (%) | TEAE Injection site reaction/phlebitis [2, 5]: 0 (0) n (%) | TEAE Insomnia [2, 5]: 0 (0) n (%) | TEAE Nausea [2, 5]: 2 (50) n (%) | TEAE Pyrexia [2, 5]: 0 (0) n (%) | TEAE Rash [2, 5]: 1 (25.0) n (%) | TEAE Vomiting [2, 5]: 1 (25.0) n (%) | TEAE Abdominal pains [2, 6]: 1 (33.3) n (%) | TEAE Back pain [2, 6]: 0 (0) n (%) | TEAE Cancer pain [2, 6]: 1 (33.3) n (%) | TEAE Constipation [2, 6]: 1 (33.3) n (%) | TEAE Cough [2, 6]: 0 (0) n (%) | TEAE Decreased appetite [2, 6]: 1 (33.3) n (%) | TEAE Diarrhea [2, 6]: 0 (0) n (%) | TEAE Edema, peripheral [2, 6]: 0 (0) n (%) | TEAE Fatigue/asthenia [2, 6]: 1 (33.3) n (%) | TEAE Injection site reaction/phlebitis [2, 6]: 0 (0) n (%) | TEAE Insomnia [2, 6]: 0 (0) n (%) | TEAE Nausea [2, 6]: 0 (0) n (%) | TEAE Pyrexia [2, 6]: 0 (0) n (%) | TEAE Rash [2, 6]: 0 (0) n (%) | TEAE Vomiting [2, 6]: 0 (0) n (%) | TEAE Abdominal pains [2, 7]: 0 (0) n (%) | TEAE Back pain [2, 7]: 0 (0) n (%) | TEAE Cancer pain [2, 7]: 2 (33.3) n (%) | TEAE Constipation [2, 7]: 1 (16.7) n (%) | TEAE Cough [2, 7]: 0 (0) n (%) | TEAE Decreased appetite [2, 7]: 0 (0) n (%) | TEAE Diarrhea [2, 7]: 0 (0) n (%) | TEAE Edema, peripheral [2, 7]: 1 (16.7) n (%) | TEAE Fatigue/asthenia [2, 7]: 0 (0) n (%) | TEAE Injection site reaction/phlebitis [2, 7]: 1 (16.7) n (%) | TEAE Insomnia [2, 7]: 0 (0) n (%) | TEAE Nausea [2, 7]: 3 (50) n (%) | TEAE Pyrexia [2, 7]: 0 (0) n (%) | TEAE Rash [2, 7]: 0 (0) n (%) | TEAE Vomiting [2, 7]: 1 (16.7) n (%) | TEAE Back pain [2, 8]: 2 (10.5) n (%) | TEAE Cancer pain [2, 8]: 1 (5.3) n (%) | TEAE Constipation [2, 8]: 4 (21.1) n (%) | TEAE Cough [2, 8]: 1 (5.3) n (%) | TEAE Decreased appetite [2, 8]: 8 (42.1) n (%) | TEAE Diarrhea [2, 8]: 5 (26.3) n (%) | TEAE Edema, peripheral [2, 8]: 3 (15.8) n (%) | TEAE Fatigue/asthenia [2, 8]: 4 (21.1) n (%) | TEAE Injection site reaction/phlebitis [2, 8]: 5 (26.3) n (%) | TEAE Insomnia [2, 8]: 3 (15.8) n (%) | TEAE Nausea [2, 8]: 8 (42.1) n (%) | TEAE Pyrexia [2, 8]: 3 (15.8) n (%) | TEAE Rash [2, 8]: 1 (5.3) n (%) | TEAE Vomiting [2, 8]: 10 (52.6) n (%) | TEAE Abdominal pains [2, 9]: 2 (14.3) n (%) | TEAE Back pain [2, 9]: 2 (14.3) n (%) | TEAE Cancer pain [2, 9]: 1 (7.1) n (%) | TEAE Constipation [2, 9]: 2 (14.3) n (%) | TEAE Cough [2, 9]: 1 (7.1) n (%) | TEAE Decreased appetite [2, 9]: 5 (35.7) n (%) | TEAE Diarrhea [2, 9]: 4 (28.6) n (%) | TEAE Edema, peripheral [2, 9]: 2 (14.3) n (%) | TEAE Fatigue/asthenia [2, 9]: 2 (14.3) n (%) | TEAE Injection site reaction/phlebitis [2, 9]: 4 (28.6) n (%) | TEAE Insomnia [2, 9]: 2 (14.3) n (%) | TEAE Nausea [2, 9]: 4 (28.6) n (%) | TEAE Pyrexia [2, 9]: 1 (7.1) n (%) | TEAE Rash [2, 9]: 1 (7.1) n (%) | TEAE Vomiting [2, 9]: 6 (42.9) n (%) | cases of transaminase increase (grade ≥ 3) leading to dose modification ([2]; laboratory findings): Two | recommended dose (RD) ([3]; first-in-human study, Western countries, intravenously): 570 mg/m^2 per week | tolerability profile ([3]; first-in-human study, doses 50‒740 mg/m^2): acceptable tolerability profile | antitumor activity ([3]; one patient with lung adenocarcinoma and MET amplification): Preliminary evidence of antitumor activity
